For one series, the system named is Hep3B cells. The format is in vivo. Conditions: Hep3B xenograft; for efficacy (tumor volume): FIG. 4.
Another series has as its target T1, FGFR4 (Homo sapiens, UniProt P22455).
T1 construct: purchased Invitrogen
Put plainly: IC50 Profiling of Kinase Activity Inhibition (Kinase HotSpot assay). The format is biochemical. As to conditions: Table 1.

For another series, the target named is T2, FGFR1 (Homo sapiens, UniProt P11362).
T2 construct: purchased Invitrogen
The series is described as above. The format is biochemical. As to conditions: Table 1.

The next series relates to HEPG2. Nature of the series: Cellular Viability assay to obtain GI50 (CellTiter-Glo). The format is cell-based. As to conditions: Homo sapiens; HEPG2, 72h, FGF19 non-amplified. For orientation: ATP-based viability assays read luminescence as a measure of living cells.
In a further series the test system is JHH7. Described as above. The format is cell-based. Conditions: Homo sapiens; JHH7, 72h, FGF19 amplified line.
In a further series the test system is HEP3B. The series is described as above. The format is cell-based. Conditions: Homo sapiens, 72h, FGF19 amplified line.
A further series relates to HUH7. The description is as above. The format is cell-based. As to conditions: Homo sapiens, Huh-7; HUH7, 72h, FGF19 amplified line.

Structures can show the parent of a compound that is named as a salt. Where two headings read alike, the source gives them in different places. Some results are limits rather than exact numbers.

T1 sequence (P22455 22-802): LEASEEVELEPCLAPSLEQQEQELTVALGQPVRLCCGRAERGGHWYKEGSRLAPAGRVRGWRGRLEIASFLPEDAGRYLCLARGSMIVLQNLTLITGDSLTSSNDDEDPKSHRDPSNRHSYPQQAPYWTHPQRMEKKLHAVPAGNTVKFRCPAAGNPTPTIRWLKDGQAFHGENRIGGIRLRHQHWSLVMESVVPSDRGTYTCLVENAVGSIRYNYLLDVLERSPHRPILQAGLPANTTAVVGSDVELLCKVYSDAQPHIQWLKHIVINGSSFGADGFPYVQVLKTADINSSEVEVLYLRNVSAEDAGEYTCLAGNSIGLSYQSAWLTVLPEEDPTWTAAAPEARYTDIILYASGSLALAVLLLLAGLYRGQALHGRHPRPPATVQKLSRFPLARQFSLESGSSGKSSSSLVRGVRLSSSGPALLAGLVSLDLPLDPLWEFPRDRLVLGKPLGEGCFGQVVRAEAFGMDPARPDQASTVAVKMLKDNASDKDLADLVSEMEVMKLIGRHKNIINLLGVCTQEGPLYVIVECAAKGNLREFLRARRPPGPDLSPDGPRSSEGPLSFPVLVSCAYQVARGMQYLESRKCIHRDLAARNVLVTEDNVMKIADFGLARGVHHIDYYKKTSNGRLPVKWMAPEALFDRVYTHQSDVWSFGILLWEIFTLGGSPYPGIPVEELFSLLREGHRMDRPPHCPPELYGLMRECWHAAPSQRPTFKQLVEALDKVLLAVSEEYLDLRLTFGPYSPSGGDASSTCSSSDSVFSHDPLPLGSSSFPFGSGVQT
T2 sequence (P11362 22-822): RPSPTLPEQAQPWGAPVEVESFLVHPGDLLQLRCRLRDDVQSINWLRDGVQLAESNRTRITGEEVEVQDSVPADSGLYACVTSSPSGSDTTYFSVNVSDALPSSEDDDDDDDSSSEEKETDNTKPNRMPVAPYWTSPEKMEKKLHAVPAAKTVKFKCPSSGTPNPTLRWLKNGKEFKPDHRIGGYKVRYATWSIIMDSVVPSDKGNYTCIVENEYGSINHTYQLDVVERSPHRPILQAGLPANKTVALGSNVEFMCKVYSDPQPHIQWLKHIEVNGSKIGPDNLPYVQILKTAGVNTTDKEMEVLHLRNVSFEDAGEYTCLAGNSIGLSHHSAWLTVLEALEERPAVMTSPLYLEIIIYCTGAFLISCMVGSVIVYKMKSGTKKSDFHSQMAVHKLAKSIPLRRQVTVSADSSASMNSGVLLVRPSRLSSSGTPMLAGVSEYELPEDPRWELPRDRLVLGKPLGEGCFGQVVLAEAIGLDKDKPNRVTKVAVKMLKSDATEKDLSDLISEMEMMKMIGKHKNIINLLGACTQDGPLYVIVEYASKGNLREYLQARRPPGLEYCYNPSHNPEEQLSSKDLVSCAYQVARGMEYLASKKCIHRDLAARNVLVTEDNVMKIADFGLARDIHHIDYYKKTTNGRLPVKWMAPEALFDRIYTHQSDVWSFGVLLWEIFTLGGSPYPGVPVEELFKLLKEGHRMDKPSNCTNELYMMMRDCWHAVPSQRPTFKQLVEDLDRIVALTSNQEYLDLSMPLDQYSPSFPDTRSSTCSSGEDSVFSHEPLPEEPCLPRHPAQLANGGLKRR

Regarding `C=CC(=O)Nc1cc(N2CCN(CC)CC2)ccc1Nc1cc(N(C)C(=O)Nc2c(Cl)c(OC)cc(OC)c2Cl)ncn1` [Compound 108, N-(2-(6-(3-(2,6-Dichloro-3,5-dimethoxyphenyl)-1-methylureido)pyrimidin-4-ylamino)-5-(4-ethylpiperazin-1-yl)phenyl)acrylamide], in the series on Hep3B cells (dosed for 18 days, Compound 108 versus BGJ398), the “efficacy (tumor volume)” value is on record as “more efficacious than BGJ398 at tolerable dosage levels”.

One may read the IC50 as the point on the concentration scale where inhibition reaches its midpoint. With `C=CC(=O)Nc1ccccc1Nc1cc(N(C)C(=O)Nc2cc(OC)cc(OC)c2Cl)ncn1` [Compound 105], the IC50 against FGFR4 was 201 nM; against FGFR1, over 10000 nM.

What is called GI50 is the concentration giving 50% growth inhibition. Turning to `CCN1CCN(c2ccc(Nc3cc(N(C)C(=O)Nc4c(Cl)c(OC)cc(OC)c4Cl)ncn3)cc2)CC1` [BGJ398], the GI50 in the series with HEPG2 amounted to 2260 ± 1180 nM; with JHH7, 178 ± 30 nM; in the series on HEP3B, 74 ± 23 nM; in the series on HUH7 it was 231 ± 100 nM. In addition, the “efficacy (tumor volume)” value in the series on Hep3B cells (BGJ398 at 60mg/kg) is reported as “efficacy comparable to compound 108”. Further, the “toxicity (health of animals)” value with Hep3B cells (BGJ398 at 60mg/kg) is given as “terminated on Day 11 due to poor health of animals”; with Hep3B cells (dosed orally with BGJ398 at 30mg/kg) it was “did not exhibit poor health”.

Take `C=CC(=O)Nc1ccccc1Nc1cc(N(C)C(=O)Nc2cccc(OC)c2Cl)ncn1` [Compound 103]: the IC50 against FGFR4 was 673 nM; at FGFR1, over 10000 nM.

As for `C=CC(=O)Nc1cc(N2CCN(CCO)CC2)ccc1Nc1cc(N(C)C(=O)Nc2c(Cl)c(OC)cc(OC)c2Cl)ncn1` [Compound 168, N-(2-((6-(3-(2,6-dichloro-3,5-dimethoxyphenyl)-1-methylureido)pyrimidin-4-yl)amino)-5-(4-(2-hydroxyethyl)piperazin-1-yl)phenyl)acrylamide TFA salt], on FGFR4, the IC50 was under 1 nM.

In the case of `C=CC(=O)Nc1cc(N2CCN(CC)CC2)ccc1Nc1cc(N(C)C(=O)Nc2c(F)c(OC)cc(OC)c2Cl)ncn1` [Compound 144, N-(2-((6-(3-(2-chloro-6-fluoro-3,5-dimethoxyphenyl)-1-methylureido)pyrimidin-4-yl)amino)-5-(4-ethylpiperazin-1-yl)phenyl)acrylamide], the half-inhibitory concentration (IC50) at FGFR4 was under 1 nM.

`C=CC(=O)Nc1cc(N2C[C@@H](C)N[C@@H](C)C2)ccc1Nc1cc(N(C)C(=O)Nc2c(Cl)c(OC)cc(OC)c2Cl)ncn1` [Compound 124, N-[2-{6-[3-(2,6-Dichloro-3,5-dimethoxy-phenyl)-1-methyl-ureido]-pyrimidin-4-ylamino}-5-(3,5-dimethyl-piperazin-1-yl)-phenyl]-acrylamide] yielded an IC50 on FGFR4 of under 1 nM.

On FGFR4, `C=CC(=O)Nc1cccc(C)c1Nc1cc(N(C)C(=O)Nc2c(Cl)c(OC)cc(OC)c2Cl)ncn1` [Compound 165, N-(2-((6-(3-(2,6-dichloro-3,5-dimethoxyphenyl)-1-methylureido)pyrimidin-4-yl)amino)-3-methylphenyl)acrylamide] registered an IC50 of under 1 nM.

Take `C=CC(=O)Nc1ccccc1Nc1cc(N(Cc2ccccn2)C(=O)Nc2c(Cl)c(OC)cc(OC)c2Cl)ncn1` [Compound 131, N-(2-{6-[3-(2,6-Dichloro-3,5-dimethoxy-phenyl)-1-pyridin-2-ylmethyl-ureido]-pyrimidin-4-ylamino}-phenyl)-acrylamide]: on FGFR4, the 50% inhibitory concentration (IC50) was under 1 nM.

Consider `COc1cc(OC)c(Cl)c(NC(=O)N(C)c2cc(Nc3ccccc3NC(=O)/C=C\Cl)ncn2)c1Cl` [Compound 171, (Z)-3-chloro-N-(2-((6-(3-(2,6-dichloro-3,5-dimethoxyphenyl)-1-methylureido)pyrimidin-4-yl)amino)phenyl)acrylamide], for which, on FGFR4, half-maximal inhibition (IC50) required 3 nM.

Turning to `C=CC(=O)Nc1cc(N2CCN(CC)CC2)ccc1Nc1cc(N(C)C(=O)Nc2c(Cl)cccc2Cl)ncn1` [Compound 140, N-(2-((6-(3-(2,6-dichlorophenyl)-1-methylureido)pyrimidin-4-yl)amino)-5-(4-ethylpiperazin-1-yl)phenyl)acrylamide], the IC50 at FGFR4 was under 1 nM.

Turning to `COc1cc(OC)c(Cl)c(NC(=O)N(C)c2cc(Nc3ccccc3NC(=O)/C=C/Cl)ncn2)c1Cl` [Compound 170, (E)-3-chloro-N-(2-((6-(3-(2,6-dichloro-3,5-dimethoxyphenyl)-1-methylureido)pyrimidin-4-yl)amino)phenyl)acrylamide], 8 nM corresponded to half-maximal inhibition against FGFR4 (IC50).

`C#CC(=O)Nc1ccccc1Nc1cc(N(C)C(=O)Nc2c(Cl)c(OC)cc(OC)c2Cl)ncn1` [Compound 114, N-(2-(6-(3-(2,6-dichloro-3,5-dimethoxyphenyl)-1-methylureido)pyrimidin-4-ylamino)phenyl)propiolamide] displayed an IC50 against FGFR4 of under 1 nM.

`C=CC(=O)Nc1ccccc1Nc1cc(N(Cc2ccncc2)C(=O)Nc2c(Cl)c(OC)cc(OC)c2Cl)ncn1` [Compound 132] had an IC50 against FGFR4 of under 1 nM.

At FGFR4, `C=CC(=O)Nc1ccccc1Nc1cc(N(Cc2ccccc2)C(=O)Nc2c(Cl)c(OC)cc(OC)c2Cl)ncn1` [Compound 130, N-(2-{6-[1-Benzyl-3-(2,6-dichloro-3,5-dimethoxy-phenyl)-ureido]-pyrimidin-4-ylamino}-phenyl)-acrylamide] returned an IC50 of 2 nM. This lies in the single-digit nanomolar range.

For the origin of these results see patent EP3421457B1, “PYRIMIDINE FGFR4 INHIBITORS” (priority 2013, dated 2015).
